In the test the target is T1, rat amylin receptor (rat calcitonin receptor + rat RAMP 3) (Rattus norvegicus, UniProt P32214+Q9JJ73).
T1 construct: expressed in transfected cells; host or cells: BHK tk'ts 13 (transient, FuGENE 6), membranes
T1 sequence (P32214 25-479 isoform P32214-2 limits assumed): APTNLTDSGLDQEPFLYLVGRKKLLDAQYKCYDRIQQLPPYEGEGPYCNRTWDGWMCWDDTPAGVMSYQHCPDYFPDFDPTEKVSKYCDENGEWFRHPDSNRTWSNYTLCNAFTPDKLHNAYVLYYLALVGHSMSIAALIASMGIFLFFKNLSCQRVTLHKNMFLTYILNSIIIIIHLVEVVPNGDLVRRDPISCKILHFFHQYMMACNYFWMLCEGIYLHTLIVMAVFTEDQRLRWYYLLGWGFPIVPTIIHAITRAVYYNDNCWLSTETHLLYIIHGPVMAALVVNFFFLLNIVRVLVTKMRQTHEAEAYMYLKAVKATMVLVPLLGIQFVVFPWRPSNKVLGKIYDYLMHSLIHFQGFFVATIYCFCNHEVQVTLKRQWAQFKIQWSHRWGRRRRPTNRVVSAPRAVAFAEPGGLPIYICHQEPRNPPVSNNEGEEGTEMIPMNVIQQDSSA
T1 sequence (Q9JJ73 23-147 partner): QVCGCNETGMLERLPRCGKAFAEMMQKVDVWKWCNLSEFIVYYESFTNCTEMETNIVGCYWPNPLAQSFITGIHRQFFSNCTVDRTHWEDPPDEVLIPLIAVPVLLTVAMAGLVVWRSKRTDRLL
Description: ASSAY (VI) binding to the rat amylin receptor. As to conditions: for pIC50: binding to rat amylin receptor, read-out: rAmylin-R bind IC50. In short, it runs like this: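 The cell-membrane assay assessed binding at the rat amylin receptor. BHK tk′ts 13 cells were transfected transiently with rat calcitonin receptor, with FuGENE® 6 (Roche) as the transfection reagent, used per the manufacturer's recommendations. Approximately 48 hours after transfection the cells were harvested, and membranes were prepared for measuring binding.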

The mark [1] stands for this setting: Table 7, rat binding selectivity, rCTR IC50 / rAmylin-R IC50.
[2] abbreviates: Table 7a (preferred compounds), rat binding selectivity, rCTR IC50 / rAmylin-R IC50.
[3] abbreviates: ratio of rCTR bind IC50 to rAmylin-R bind IC50.

The structures appear in SMILES notation. pIC50: −log10 of the molar value. Numbered stars: 1 amine (or outer) side, 2 acyl side, 3 side chain; on linkers, the order of the positions; unused ones are H or OH. Bridge positions count the residues as written; N and C are the ends. Side chains are listed from the residue outwards. Peptide text beside a SMILES is read from it. * marks the point of attachment. C20 diacid = O=C(O)CCCCCCCCCCCCCCCCCCC(=O)*; γGlu = O=C(O)[C@H](CCC(=O)[*:2])N[*:1]

For orientation: pIC50 means the IC50 on a negative log10 scale, so that one unit is a factor of ten. Regarding `CC[C@H](C)[C@H](NC(=O)[C@H](C)NC(=O)CNC(=O)[C@H](Cc1ccccc1)NC(=O)[C@H](CC(N)=O)NC(=O)[C@@H]1CCCN1C(=O)[C@H](CO)NC(=O)[C@H](CO)NC(=O)[C@H](Cc1c[nH]cn1)NC(=O)[C@H](CCCNC(=N)N)NC(=O)[C@H](CC(C)C)NC(=O)[C@H](Cc1ccccc1)NC(=O)[C@H](CCC(=O)O)NC(=O)[C@H](C)NC(=O)[C@H](CC(C)C)NC(=O)[C@H](CCCNC(=N)N)NC(=O)[C@H](CCC(N)=O)NC(=O)[C@@H](NC(=O)[C@H](C)NC(=O)[C@@H]1CSSC[C@H](NC(=O)[C@@H](N)CCCCNC(=O)CC[C@H](NC(=O)CC[C@H](NC(=O)CCCCCCCCCCCCCCCCCCC(=O)O)C(=O)O)C(=O)O)C(=O)N[C@@H](CC(N)=O)C(=O)N[C@@H]([C@@H](C)O)C(=O)N[C@@H](C)C(=O)N[C@@H]([C@@H](C)O)C(=O)N1)[C@@H](C)O)C(=O)N1CCC[C@H]1C(=O)N[C@@H](CO)C(=O)N[C@@H](CO)C(=O)N[C@H](C(=O)N[C@@H](CC(N)=O)C(=O)N[C@H](C(=O)NCC(=O)N1CCC[C@H]1C(=O)N[C@@H](CCC(=O)O)C(=O)N[C@H](C(=O)N1CCC[C@H]1C(N)=O)[C@@H](C)O)C(C)C)[C@@H](C)O` [Example 125] (H-K([γGlu-γGlu-C20 diacid])CNTATCATQRLAEFLRHSSPNFGAIPSSTNVGPETP-NH2; disulfide 2-7 (inferred); N-terminus assumed), the pIC50 (Table 7) was 9.82. The “Ratio rCT/rAmylin binding” value is reported as 10.6 under setting [1] and 10.6 under setting [2].

On to `CC[C@H](C)[C@H](NC(=O)[C@H](C)NC(=O)CNC(=O)[C@H](Cc1ccccc1)NC(=O)[C@H](CC(N)=O)NC(=O)[C@@H]1CCCN1C(=O)[C@H](CO)NC(=O)[C@H](CO)NC(=O)[C@H](Cc1c[nH]cn1)NC(=O)[C@H](CCCNC(=N)N)NC(=O)[C@H](CC(C)C)NC(=O)[C@H](Cc1ccccc1)NC(=O)[C@H](Cc1c[nH]cn1)NC(=O)[C@H](C)NC(=O)[C@H](CC(C)C)NC(=O)[C@H](CCCNC(=N)N)NC(=O)[C@H](CCC(N)=O)NC(=O)[C@@H](NC(=O)[C@H](C)NC(=O)[C@@H]1CSSC[C@H](NC(=O)[C@@H](N)CCCCNC(=O)CC[C@H](NC(=O)CCCCCCCCCCCCCCCCCCC(=O)O)C(=O)O)C(=O)N[C@@H](CC(N)=O)C(=O)N[C@@H]([C@@H](C)O)C(=O)N[C@@H](C)C(=O)N[C@@H]([C@@H](C)O)C(=O)N1)[C@@H](C)O)C(=O)N1CCC[C@H]1C(=O)N[C@@H](CO)C(=O)N[C@@H](CO)C(=O)N[C@H](C(=O)N1CCC[C@H]1C(=O)N[C@H](C(=O)NCC(=O)N1CCC[C@H]1C(=O)N[C@@H](CC(N)=O)C(=O)N[C@H](C(=O)N[C@@H](Cc1ccc(O)cc1)C(N)=O)[C@@H](C)O)C(C)C)[C@@H](C)O` [Example 116] (H-K([γGlu-C20 diacid])CNTATCATQRLAHFLRHSSPNFGAIPSSTPVGPNTY-NH2; disulfide 2-7), for which the pIC50 (Table 7) was 9.90. Also, the “Ratio rCT/rAmylin binding” value runs as follows: under setting [1], 72.4; under setting [2], 72.4; under setting [3], 72.4.

Turning to `CC[C@H](C)[C@H](NC(=O)[C@H](C)NC(=O)CNC(=O)[C@H](Cc1ccccc1)NC(=O)[C@H](CC(N)=O)NC(=O)[C@@H]1CCCN1C(=O)[C@H](CO)NC(=O)[C@H](CO)NC(=O)[C@H](Cc1c[nH]cn1)NC(=O)[C@H](CCCNC(=N)N)NC(=O)[C@H](CC(C)C)NC(=O)[C@H](Cc1ccccc1)NC(=O)[C@H](CC(N)=O)NC(=O)[C@H](C)NC(=O)[C@H](CC(C)C)NC(=O)[C@H](CCCNC(=N)N)NC(=O)[C@H](CCC(N)=O)NC(=O)[C@@H](NC(=O)[C@H](C)NC(=O)[C@@H]1CSSC[C@H](NC(=O)[C@@H](N)CCCCNC(=O)CC[C@H](NC(=O)CCCCCCCCCCCCC(=O)O)C(=O)O)C(=O)N[C@@H](CC(N)=O)C(=O)N[C@@H]([C@@H](C)O)C(=O)N[C@@H](C)C(=O)N[C@@H]([C@@H](C)O)C(=O)N1)[C@@H](C)O)C(=O)N1CCC[C@H]1C(=O)N[C@@H](CO)C(=O)N[C@@H](CO)C(=O)N[C@H](C(=O)N[C@@H](CC(N)=O)C(=O)N[C@H](C(=O)NCC(=O)N[C@@H](Cc1c[nH]cn1)C(=O)N[C@@H](CC(N)=O)C(=O)N[C@H](C(=O)N[C@@H](Cc1ccc(O)cc1)C(N)=O)[C@@H](C)O)C(C)C)[C@@H](C)O` [Example 112], the pIC50 (Table 7) is 8.60. In addition, the “Ratio rCT/rAmylin binding” value is reported as 280.1 under setting [1], 280.1 under setting [2] and 280.1 under setting [3].

On to `CC[C@H](C)[C@H](NC(=O)[C@H](C)NC(=O)CNC(=O)[C@H](Cc1ccccc1)NC(=O)[C@H](CC(N)=O)NC(=O)[C@@H]1CCCN1C(=O)[C@H](CO)NC(=O)[C@H](CO)NC(=O)[C@H](Cc1c[nH]cn1)NC(=O)[C@H](CCCNC(=N)N)NC(=O)[C@H](CC(C)C)NC(=O)[C@H](Cc1ccccc1)NC(=O)[C@H](CCC(=O)O)NC(=O)[C@H](C)NC(=O)[C@H](CC(C)C)NC(=O)[C@H](CCCNC(=N)N)NC(=O)[C@H](CCC(N)=O)NC(=O)[C@@H](NC(=O)[C@H](C)NC(=O)[C@@H]1CSSC[C@H](NC(=O)[C@H](CCCCN)NC(=O)CC[C@H](NC(=O)CCCCCCCCCCCCCCCCCCC(=O)O)C(=O)O)C(=O)N[C@@H](CC(N)=O)C(=O)N[C@@H]([C@@H](C)O)C(=O)N[C@@H](C)C(=O)N[C@@H]([C@@H](C)O)C(=O)N1)[C@@H](C)O)C(=O)N1CCC[C@H]1C(=O)N[C@@H](CO)C(=O)N[C@@H](CO)C(=O)N[C@H](C(=O)N[C@@H](CC(N)=O)C(=O)N[C@H](C(=O)NCC(=O)N[C@@H](CO)C(=O)N[C@@H](CCCNC(=N)N)C(=O)N[C@H](C(=O)N[C@@H](Cc1ccc(O)cc1)C(N)=O)[C@@H](C)O)C(C)C)[C@@H](C)O` [Example 16] ({C20 diacid-γGlu}-KCNTATCATQRLAEFLRHSSPNFGAIPSSTNVGSRTY-NH2; disulfide 2-7), for which, under “Table 7”, the pIC50 is 8.92. Further, the “Ratio rCT/rAmylin binding” value came out at 45.6 under setting [1], 45.6 under setting [2] and 45.6 under setting [3].

`CC[C@H](C)[C@H](NC(=O)[C@H](C)NC(=O)CNC(=O)[C@H](Cc1ccccc1)NC(=O)[C@H](CC(N)=O)NC(=O)[C@@H]1CCCN1C(=O)[C@H](CO)NC(=O)[C@H](CO)NC(=O)[C@H](Cc1c[nH]cn1)NC(=O)[C@H](CCCNC(=N)N)NC(=O)[C@H](CC(C)C)NC(=O)[C@H](Cc1ccccc1)NC(=O)[C@H](CC(N)=O)NC(=O)[C@H](C)NC(=O)[C@H](CC(C)C)NC(=O)[C@H](CCCNC(=N)N)NC(=O)[C@H](CCC(N)=O)NC(=O)[C@@H](NC(=O)[C@H](C)NC(=O)[C@@H]1CSSC[C@H](NC(=O)[C@H](CCCCN)NC(=O)CC[C@H](NC(=O)CCCCCCCCCCCCCCCCCCC(=O)O)C(=O)O)C(=O)N[C@@H](CC(N)=O)C(=O)N[C@@H]([C@@H](C)O)C(=O)N[C@@H](C)C(=O)N[C@@H]([C@@H](C)O)C(=O)N1)[C@@H](C)O)C(=O)N1CCC[C@H]1C(=O)N[C@@H](CO)C(=O)N[C@@H](CO)C(=O)N[C@H](C(=O)N[C@@H](CC(N)=O)C(=O)N[C@H](C(=O)NCC(=O)N[C@@H](CO)C(=O)N[C@@H](CCC(=O)O)C(=O)N[C@H](C(=O)N[C@@H](Cc1ccc(O)cc1)C(N)=O)[C@@H](C)O)C(C)C)[C@@H](C)O` [Example 23]: the pIC50 (Table 7) is 8.95. The “Ratio rCT/rAmylin binding” value worked out at 71.3 under setting [1], 71.3 under setting [2] and 71.3 under setting [3].

The values are drawn from US9023789B2, “Amylin analogs and pharmaceutical compositions thereof” (Novo Nordisk A/S, priority 2012, dated 2015).
